Legend:
mouse MCT4 = assay: Mouse MCT4 expression in TRAMPC2 cells after ASO transfection; assay type: cell-based; conditions: up to 200 nM
Protocol: (§1) Cells were transfected in 6-well plates with ASOs at 100 nM for 48 hours (unless otherwise indicated) using Oligofectamine™ (Invitrogen™, Carlsbad, Calif.) or with MCT4-targeting siRNAs and controls (Dharmacon™, Chicago, Ill.) at 50 nM for 48 hours using Lipofectamine™ 2000 (Invitrogen™), following the manufacturer's instructions.
(§2) Total RNA was isolated using the RNeasy Mini Kit™ (Qiagen Inc.™, Hilden, Germany) and cDNA synthesized using the QuantiTect Reverse Transcription Kit™ (Qiagen™). Primers were designed using Primer-BLAST™. qRT-PCR reactions using KAPA SYBR Fast Universal™ (Kapa Biosystems™, Woburn, Mass.) were performed in triplicate in a ViiA 7 Real-Time PCR™ system (Applied Biosystems™, Foster City, Calif.). […]
(§3) Cells were harvested and lysed in RIPA buffer (50 mM Tris-Cl pH 7.4, 150 mM NaCl, 1% Igepal, 0.5% Na-deoxycholate, 0.1% SDS) supplemented with a complete protease inhibitor cocktail (Roche, Nutley, N.J.). The protein concentration of the lysate was determined by Pierce BCA Protein Assay™ (Thermo Scientific™, Waltham, Mass.). […] Following overnight incubation at 4° C., the primary antibody was probed with the corresponding secondary antibody and detected using the Odyssey Infrared Imaging System™ (Li-cor Biosciences™) and Image Studio Version 3.1™ (Li-cor Biosciences™). […]

PC-3 cells [1] = assay: qPCR of glycolysis and lactic acid conversion genes in PC-3 cells; assay type: cell-based, human
Protocol: (§4) Total RNA was isolated using the RNeasy Mini Kit™ (Qiagen Inc.™, Hilden, Germany) and cDNA synthesized using the QuantiTect Reverse Transcription Kit™ (Qiagen™). Primers were designed using Primer-BLAST™. qRT-PCR reactions using KAPA SYBR Fast Universal™ (Kapa Biosystems™, Woburn, Mass.) were performed in triplicate in a ViiA 7 Real-Time PCR™ system (Applied Biosystems™, Foster City, Calif.). Target genes were normalized to a geometric average of 3 internal reference genes (Vandesompele et al., 2002).

PC-3 cells [2] = assay: PC-3 cell proliferation after ASO/siRNA transfection; assay type: cell-based, human; conditions: for inhibition of PC-3 cell proliferation, screening of ten MCT4 ASOs: 100 nM, 48 hours; for inhibition of cell proliferation, time course: 96 hours post-transfection; for IC50: transfection of 5 nM to 200 nM, read-out: IC50 inhibition of PC-3 cell proliferation
Protocol: (§5) Cell viability was assessed by trypan blue exclusion.
as §1

MCT4 mRNA = assay: MCT4 expression (mRNA, protein) in PC-3 cells after ASO transfection; assay type: cell-based, human; conditions: for MCT4 protein levels, time course: 96 hours; for inhibition of MCT4 expression, screening of ten MCT4 ASOs: qPCR and Western blot, 48 hours; for IC50: transfection of 5 nM to 200 nM, read-out: IC50 reduction of MCT4 mRNA levels
Protocol: as §1, §4
Cells were harvested and lysed in RIPA buffer (50 mM Tris-Cl pH 7.4, 150 mM NaCl, 1% Igepal, 0.5% Na-deoxycholate, 0.1% SDS) supplemented with a complete protease inhibitor cocktail (Roche, Nutley, N.J.). The protein concentration of the lysate was determined by Pierce BCA Protein Assay™ (Thermo Scientific™, Waltham, Mass.). The lysate was run on 8% SDS polyacrylamide gel (20 ug of protein per lane) and proteins were transferred onto PVDF membrane (Millipore™, Billerica, Mass.). The blot was blocked with the Odyssey™ blocking buffer (Li-cor Biosciences™) and probed with anti-MCT4 antibody. Vinculin was used as a loading control. Following overnight incubation at 4° C., the primary antibody was probed with the corresponding secondary antibody and detected using the Odyssey Infrared Imaging System™ (Li-cor Biosciences™) and Image Studio Version 3.1™ (Li-cor Biosciences™). Densitometry analysis was done using ImageJ (U.S. National Institutes of Health, Bethesda, Md.).

PC-3 cells [3] = assay: Lactate and glucose determination in PC-3 cells; assay type: cell-based, human; conditions: after 48 hours of transfection
Protocol: PC-3 cells transfected with ASOs for 48 hours were assessed for lactate and glucose levels. Cells were incubated with fresh media for 4 hours. A sample of the media was then taken and deproteinated with 10K Spin Columns™ (BioVision™, Milpitas, Calif.) prior to determination of lactate concentration using Lactate Assay Kit (BioVision) and glucose concentration using Glucose Assay Kit™ (BioVision™). Intracellular lactate levels were determined by lysing ASO-transfected cells in MQH2O. Final concentrations were determined by normalizing to the total number of live cells.

[4] = test system: subcutaneous PC-3 tumours; assay: Treatment of PC-3 tumour-bearing nude mice with MCT4 ASO; assay type: in vivo; conditions: for host toxicity (animal weights and behaviour) / growth of PC-3 tumours: 10 mg/kg intraperitoneal; for host toxicity (animal weights and behaviour): 15 days; for growth of PC-3 tumours: daily for 5 days, 2 days off, total 15 days; for MCT4 protein expression in tumour / cell apoptosis, cleaved-caspase 3 staining / cell proliferation, Ki-67 staining: tumour tissue IHC
Protocol: PC-3 cells ([…] cells in 1:1 HBSS:Matrigel) were injected subcutaneously into both flanks of 24 male athymic nude mice (Simonsen Laboratories™, Gilroy, Calif.). Once the mean tumour volume had reached approximately 100 mm3, mice were randomized into four groups and treated with intraperitoneal injections of MCT4 ASO #1 (SEQ ID NO: 1), #14 (SEQ ID NO: 5), control ASO, or vehicle (PBS) at 10 mg/kg daily for 5 days followed by 2 days off treatment for a total of 15 days. The health of the mice was monitored throughout the study by measuring body weights and checking for abnormal behaviour such as lethargy, lack of hydration, and additional signs of weakness. Tumour size was measured twice weekly and tumour volume calculated using the formula: Volume=Length×width×depth×0.5236 (mm3). Mice were sacrificed 1 hour after the final dose for tissue harvesting.
Tumour tissue was formalin-fixed and paraffin-embedded for immunohistochemical analysis. Tissues were sectioned, probed, and stained with DAB (Sigma™) as previously described (Wang et al., 2005). […] For MCT4, images of five random fields at 200× magnification were taken per tumour and staining intensity was assessed by percentage scoring, using the formula: Intensity=(% area score 3)×3+(% area score 2)×2+(% area score 1)×1. The extent of immune cell aggregation was quantified following CD31 staining by imaging the five most prominent regions of aggregates per tumour at 200× magnification and determining the percent area of the field they occupied. The proportions of immune cells were evaluated as the area of positive staining normalized to the area occupied by immune cell aggregates in the same five prominent regions.

MCT4 [5] = assay: MCT4 expression in DU145 cells after ASO transfection; assay type: cell-based, human; conditions: compared with PC-3 and C4-2
Protocol: as §1, §2, §3

C4-2 CRPC cells = assay: C4-2 CRPC cell proliferation after ASO transfection; assay type: cell-based, human; conditions: read-out: IC50 inhibition of C4-2 cell proliferation
Protocol: as §5, §1

MCT4 [6] = assay: MCT4 expression in C4-2 cells after ASO transfection; assay type: cell-based, human; conditions: read-out: IC50 reduction of MCT4 expression
Protocol: as §1, §2, §3

PC3 cells = assay: Combination screening, total live PC3 cell numbers; assay type: cell-based, human; conditions: approximate IC50 used for combination screening, 48 hours; read-out: IC50 Concentration
Source text: Human PC-3 and DU145 CRPC cells, human LNCaP prostate cancer cells, and mouse TRAMPC2 prostate cancer cells were purchased from the American Type Culture Collection (ATCC); C4-2 CRPC cells were from the Vancouver Prostate Centre, Vancouver, BC, Canada. Human monolayer cultures were maintained in RPMI-1640 (GE Healthcare Hyclone™, Logan, Utah) supplemented with 10% fetal bovine serum (FBS) (GE Healthcare Hyclone™, Logan, Utah) while TRAMPC2 cells were maintained in DMEM (GE Healthcare Hyclone™, Logan, Utah) supplemented with 5% FBS. For cell counting, cells were trypsinized to form a single cell suspension and counted using a TC20 Automated Cell Counter (Bio-Rad, Hercules, Calif.). Cell viability was assessed by trypan blue exclusion.
Various combination strategies were screened at the approximate IC50 concentrations to determine whether synergistic effects may be found by combining current cancer therapeutics (see TABLE D) with MCT4 ASO SEQ ID NO:5. In FIGS. 10 A-C, the total live PC3 cell numbers were assessed 48 hours after treatment with Metformin, Doxycycline and docetaxel both alone and in combination with MCT4 ASO SEQ ID NO:5.

[7] = test system: DU145 prostate cancer cells; assay: DU145 cell proliferation after ASO transfection; assay type: cell-based, human; conditions: compared with PC-3 and C4-2
Protocol: as §5, §1

[8] = test system: TRAMPC2 prostate cancer cells; assay: TRAMPC2 cell proliferation after ASO transfection; assay type: cell-based, mouse; conditions: up to highest tested concentration of 200 nM
Protocol: as §5, §1

## AGATGCAGAAGACCACGAGG (chemistry not given here; listed as Homo sapiens) [SEQ ID No. 5]
Mouse MCT4
  reduction in mouse MCT4 expression: did not lead to a significant reduction
PC-3 cells [1]
  expression of glycolysis genes GAPDH, PGK1, PGAM1 and ENO1: down regulation
  expression of lactate dehydrogenase A (LDHA): depressed
  expression of pyruvate dehydrogenase kinase-1 (PDK1): decreased expression
PC-3 cells [2]
  inhibition of PC-3 cell proliferation, screening of ten MCT4 ASOs: greatest potency
  inhibition of cell proliferation, time course: maintained the inhibition of cell proliferation
  IC50: 0.026 µM
MCT4 mRNA
  MCT4 protein levels, time course: remained low
  inhibition of MCT4 expression, screening of ten MCT4 ASOs: greatest potency
  IC50: 0.032 µM
PC-3 cells [3]
  glucose consumption: extensive decrease
  intracellular lactate: accumulation
  lactic acid secretion: marked inhibition
[4]
  host toxicity (animal weights and behaviour): without inducing major host toxicity
  growth of PC-3 tumours: markedly inhibited
  MCT4 protein expression in tumour: decrease in MCT4 protein expression
  cell apoptosis, cleaved-caspase 3 staining: increase in cell apoptosis
  cell proliferation, Ki-67 staining: decrease in cell proliferation
MCT4 [5]
  inhibitory effect on MCT4 expression in DU145 cells: almost identical IC50 values
C4-2 CRPC cells
  IC50: 0.027 µM
MCT4 [6]
  IC50: 0.026 µM
PC3 cells
  IC50: 0.05 µM
[7]
  inhibitory effect on DU145 cell proliferation: almost identical IC50 values
[8]
  reduction in TRAMPC2 cell proliferation: did not lead to a significant reduction

## TCCCATGGCCAGGAGGGTTG (chemistry not given here; listed as Homo sapiens) [SEQ ID No. 1]
Mouse MCT4
  reduction in mouse MCT4 expression: did not lead to a significant reduction
PC-3 cells [1]
  expression of glycolysis genes GAPDH, PGK1, PGAM1 and ENO1: down regulation
  expression of lactate dehydrogenase A (LDHA): depressed
  expression of pyruvate dehydrogenase kinase-1 (PDK1): decreased expression
PC-3 cells [2]
  inhibition of PC-3 cell proliferation, screening of ten MCT4 ASOs: greatest potency
  inhibition of cell proliferation, time course: maintained the inhibition of cell proliferation
  IC50: 0.05 µM
MCT4 mRNA
  MCT4 protein levels, time course: remained low
  inhibition of MCT4 expression, screening of ten MCT4 ASOs: greatest potency
  IC50: 0.05 µM
PC-3 cells [3]
  glucose consumption: extensive decrease
  intracellular lactate: accumulation
  lactic acid secretion: marked inhibition
[4]
  host toxicity (animal weights and behaviour): without inducing major host toxicity
  growth of PC-3 tumours: markedly inhibited
  MCT4 protein expression in tumour: decrease in MCT4 protein expression
  cell apoptosis, cleaved-caspase 3 staining: increase in cell apoptosis
  cell proliferation, Ki-67 staining: decrease in cell proliferation
MCT4 [5]
  inhibitory effect on MCT4 expression in DU145 cells: almost identical IC50 values
C4-2 CRPC cells
  IC50: 0.04 µM
MCT4 [6]
  IC50: 0.05 µM
[7]
  inhibitory effect on DU145 cell proliferation: almost identical IC50 values
[8]
  reduction in TRAMPC2 cell proliferation: did not lead to a significant reduction

Source: patent US11466273B2, “Monocarboxylate transporter 4 (MCT4) antisense oligonucleotide (ASO) inhibitors for use as therapeutics in the treatment of cancer” (THE UNIVERSITY OF BRITISH COLUMBIA, priority 2015, dated 2022)
